Measurements from ChEMBL document CHEMBL5528054, “Novel Cocrystal Structures of Peptide Antagonists Bound to the Human Melanocortin Receptor 4 Unveil Unexplored Grounds for Structure-Based Drug Design” (J Med Chem, 2024).
Activity calls are given as the source filed them. The rule behind the calls is not given here.

Assays:
Melanocortin receptor 3 = Melanocortin receptor 3 (Homo sapiens, UniProt P41968); test: Antagonist activity at C-terminal HA-tagged human MC3-R stably expressed in HEK293 cells co-expressing GScAMP22P cAMP reporter assessed as inhibition of alpha-MSH induced cAMP production by cell based luminescence assay; type: functional
Melanocortin receptor 3, sequence (P41968 whole entry): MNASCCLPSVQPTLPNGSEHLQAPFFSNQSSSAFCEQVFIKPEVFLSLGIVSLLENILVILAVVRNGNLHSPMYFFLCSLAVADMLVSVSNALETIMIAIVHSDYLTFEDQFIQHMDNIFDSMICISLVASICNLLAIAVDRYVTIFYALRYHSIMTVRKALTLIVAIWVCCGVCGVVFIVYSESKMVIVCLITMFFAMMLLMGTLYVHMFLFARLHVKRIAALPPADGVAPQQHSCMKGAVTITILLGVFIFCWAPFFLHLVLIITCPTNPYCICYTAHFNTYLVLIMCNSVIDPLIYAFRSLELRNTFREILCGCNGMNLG

[1] = biological target: T1, Melanocyte-stimulating hormone receptor (Homo sapiens, UniProt Q01726); test: Partial agonist activity at C-terminal HA-tagged human MC1-R stably expressed in HEK293 cells co-expressing GScAMP22P cAMP reporter assessed as inhibition of alpha-MSH induced cAMP production by cell based luminescence assay; type: functional
Target sequence in this assay (Q01726 whole entry): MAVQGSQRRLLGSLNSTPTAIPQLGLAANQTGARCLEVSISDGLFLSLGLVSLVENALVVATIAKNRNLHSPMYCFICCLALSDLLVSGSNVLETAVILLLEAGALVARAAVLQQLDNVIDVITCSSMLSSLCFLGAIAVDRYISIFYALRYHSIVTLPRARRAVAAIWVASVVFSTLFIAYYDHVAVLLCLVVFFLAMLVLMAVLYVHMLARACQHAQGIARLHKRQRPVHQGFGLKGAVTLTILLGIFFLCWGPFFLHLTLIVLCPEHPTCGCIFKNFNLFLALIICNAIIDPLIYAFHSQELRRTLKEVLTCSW

[2] = biological target: T1, Melanocyte-stimulating hormone receptor; test: Partial agonist activity at C-terminal HA-tagged human MC1-R stably expressed in HEK293 cells co-expressing GScAMP22P cAMP reporter assessed as inhibition of alpha-MSH induced cAMP production by cell based luminescence assay relative to control; type: functional; design: concentration or dose not given beside the values; conditions: filed as partial agonist, concentration not given here
Target sequence in this assay (Q01726 whole entry, looked up): as the sequence (Q01726 whole entry) above

T-REx-293 = test: Inhibition of Kir7.1 […] mutant (unknown origin) expressed in human T-REx-293 cells co-expressing human MC4-R assessed as decrease in K+ conductance at 10 uM incubated for 24 hrs by high-throughput automated patch clamp analysis; type: cell-based
[3] = test system: Melanocortin receptor 4 (Homo sapiens), P32245 [E100A]; test: Agonist activity at N-terminal fused BRIL-Flag tagged human MC4-R E100A mutant transiently transfected in HEK293 cells assessed as fold change in cAMP accumulation by ELISA; type: cell-based; conditions: filed as agonist
Melanocortin receptor 4 (Homo sapiens), P32245 [E100A], sequence (P32245 whole entry E100A, the tested form may be a part): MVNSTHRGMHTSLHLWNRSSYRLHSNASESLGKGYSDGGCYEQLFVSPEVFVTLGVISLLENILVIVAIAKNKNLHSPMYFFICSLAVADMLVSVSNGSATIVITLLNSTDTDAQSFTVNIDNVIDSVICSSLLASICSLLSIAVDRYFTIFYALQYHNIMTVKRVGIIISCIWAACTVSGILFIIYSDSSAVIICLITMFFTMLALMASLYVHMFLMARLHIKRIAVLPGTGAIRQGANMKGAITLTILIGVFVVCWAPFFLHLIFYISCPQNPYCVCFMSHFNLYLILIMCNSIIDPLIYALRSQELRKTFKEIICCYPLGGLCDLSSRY

[4] = test system: Melanocortin receptor 4 (Homo sapiens), P32245 [D122A]; test: Agonist activity at N-terminal fused BRIL-Flag tagged human MC4-R D122A mutant transiently transfected in HEK293 cells assessed as fold change in cAMP accumulation by ELISA; type: functional, cell-based; conditions: filed as agonist
Melanocortin receptor 4 (Homo sapiens), P32245 [D122A], sequence (P32245 whole entry D122A, the tested form may be a part): as the sequence (P32245 whole entry E100A, the tested form may be a part) above, with A100E, D122A counted along it

[5] = test system: Melanocortin receptor 4 (Homo sapiens), P32245 [D126A]; test: Agonist activity at N-terminal fused BRIL-Flag tagged human MC4-R D126A mutant transiently transfected in HEK293 cells assessed as fold change in cAMP accumulation by ELISA; type: cell-based; conditions: filed as agonist
Melanocortin receptor 4 (Homo sapiens), P32245 [D126A], sequence (P32245 whole entry D126A, the tested form may be a part): as the sequence (P32245 whole entry E100A, the tested form may be a part) above, with A100E, D126A counted along it

HEK293 [6] = test: Selectivity ratio of EC50 for agonist activity at N-terminal FLAG tagged MC4-R (unknown origin) transiently transfected in HEK293 cells to EC50 for agonist activity at N-terminal FLAG tagged MC1-R (unknown origin) transiently transfected in HEK293 cells; type: cell-based
Melanocortin receptor 4 [7] = biological target: T2, Melanocortin receptor 4 (Homo sapiens, UniProt P32245); test: Antagonist activity at C-terminal HA-tagged human MC4-R stably expressed in HEK293 cells co-expressing GScAMP22P cAMP reporter assessed as inhibition of alpha-MSH induced cAMP production by cell based luminescence assay; type: functional
T2 sequence (P32245 whole entry): as the sequence (P32245 whole entry E100A, the tested form may be a part) above, with A100E counted along it

HEK293 [8] = test: (§1) Selectivity ratio of IC50 for C-terminal HA-tagged human MC4-R stably expressed in HEK293 cells co-expressing GScAMP22P cAMP reporter assessed as inhibition of alpha-MSH induced cAMP production to IC50 for C-terminal HA-tagged human MC1-R stably expressed in HEK293 cells co-expressing GScAMP22P cAMP reporter assessed as inhibition of alpha-MSH induced cAMP production; type: cell-based
HEK293 [9] = test: as §1, with “MC3-R” for “MC1-R”; type: cell-based
HEK293 [10] = test: Selectivity ratio of IC50 for C-terminal HA-tagged human MC1-R stably expressed in HEK293 cells co-expressing GScAMP22P cAMP reporter assessed as inhibition of alpha-MSH induced cAMP production to IC50 for C-terminal HA-tagged human MC4-R stably expressed in HEK293 cells co-expressing GScAMP22P cAMP reporter assessed as inhibition of alpha-MSH induced cAMP production; type: cell-based
Mus musculus [11] = test: In vivo activation of Kir7.1 channel in cannulated C57BL/6J mouse assessed as increase in food intake at 500 pM,ICV administration and measured after 4 hrs; type: functional
Mus musculus [12] = test: In vivo activation of Kir7.1 channel in cannulated C57BL/6J mouse assessed as increase in food intake at 500 pM,ICV administration and measured upto 24 hrs; type: functional
Mus musculus [13] = test: In vivo activation of Kir7.1 channel in cannulated C57BL/6J mouse assessed as increase in food intake at 500 pM,ICV administration and measured after 6 hrs; type: functional
Mus musculus [14] = test: In vivo activation of Kir7.1 channel in cannulated C57BL/6J mouse assessed as increase in food intake at 500 pM,ICV administration for 7 days; type: functional; conditions: time 7.0 day
Melanocortin receptor 4 [15] = biological target: T2, Melanocortin receptor 4; conditions: HEK293, filed as antagonist, time 1.0 hrs

Row | SMILES | IC50 (Melanocortin receptor 3; read-out: IC50) | IC50 [1] | inhibition [2] | IC50 (Melanocortin receptor 4 [7]; read-out: IC50) | Ratio IC50 (HEK293 [8]) | Ratio IC50 (HEK293 [9]) | also measured
1 | CCCC[C@H](NC(C)=O)C(=O)N[C@H]1CC(=O)NCCCC[C@@H](C(N)=O)NC(=O)CNC(=O)[C@H](Cc2c[nH]c3ccccc23)NC(=O)[C@H](CCCN=C(N)N)NC(=O)[C@@H](Cc2ccc3ccccc3c2)NC(=O)[C@@H]2CCCN2C1=O | 5.08 nM | 12 nM | 89.2% | – | – | – | IC50 (Melanocortin receptor 3; read-out: pIC50 (converted)): 5.5 nM; inhibition (T-REx-293): Active
2 | CCCC[C@H](NC(C)=O)C(=O)N[C@H]1CC(=O)NCCCC[C@@H](C(N)=O)NC(=O)[C@H](CCCNC(=N)N)NC(=O)[C@H](Cc2c[nH]c3ccccc23)NC(=O)[C@H](CCCNC(=N)N)NC(=O)[C@@H](Cc2ccc3ccccc3c2)NC(=O)[C@@H]2CCCN2C1=O | – | 299 nM | 86.8% | – | – | – | inhibition (T-REx-293): Active
3 | CC(=O)N[C@@H](CCCNC(=N)N)C(=O)N[C@H]1CSSC[C@@H](C(N)=O)NC(=O)[C@H](Cc2c[nH]c3ccccc23)NC(=O)[C@H](CCCNC(=N)N)NC(=O)[C@@H](Cc2ccccc2)NC(=O)[C@H](Cc2c[nH]cn2)NC(=O)[C@@H](C)NC1=O | – | – | – | – | – | – | fold change (FC) [3]: 2; fold change (FC) [4]: 2; fold change (FC) [5]: 205; Ratio EC50 (HEK293 [6]): 20
4 | CCCC[C@H](NC(C)=O)C(=O)N[C@H]1CC(=O)NCCCC[C@@H](C(N)=O)NC(=O)CNC(=O)[C@H](Cc2c[nH]c3ccccc23)NC(=O)[C@H](CCCNC(=N)N)NC(=O)[C@@H](Cc2ccc3ccccc3c2)NC(=O)[C@@H]2C[C@H](NC(=O)[C@@H](N)CCC(=O)O)CN2C1=O | 5.64 nM | 0.2 nM | 80.7% | 2.83 nM | 0.1 | 2 | Ratio IC50 (HEK293 [10]): 14
5 | CCCC[C@H](NC(C)=O)C(=O)N[C@H]1CC(=O)NCCCC[C@@H](C(N)=O)NC(=O)CNC(=O)[C@H](Cc2c[nH]c3ccccc23)NC(=O)[C@H](CCCNC(=N)N)NC(=O)[C@@H](Cc2ccc3ccccc3c2)NC(=O)[C@@H]2C[C@H](n3cc(C(C)(C)N)nn3)CN2C1=O | 34.3 nM | 2.53 nM | 83.8% | 5.01 nM | 0.5 | 6.8 | Activity (Mus musculus [11]): inactive; Activity (Mus musculus [12]): inactive
6 | CCCC[C@H](NC(C)=O)C(=O)N[C@H]1CC(=O)NCCCC[C@@H](C(N)=O)NC(=O)CNC(=O)[C@H](Cc2c[nH]c3ccccc23)NC(=O)[C@H](CCCNC(=N)N)NC(=O)[C@@H](Cc2ccc3ccccc3c2)NC(=O)[C@@H]2C[C@H](NC(=O)[C@@H](N)CCCN)CN2C1=O | 8.96 nM | 0.25 nM | 85.1% | 2.97 nM | 0.1 | 3 | Ratio IC50 (HEK293 [10]): 12
7 | CCCC[C@H](NC(C)=O)C(=O)N[C@H]1CC(=O)NCCCC[C@@H](C(N)=O)NC(=O)CNC(=O)[C@H](Cc2c[nH]c3ccccc23)NC(=O)[C@H](CCCNC(=N)N)NC(=O)[C@@H](Cc2ccc3ccccc3c2)NC(=O)[C@@H]2C[C@H](n3cc(CCN)nn3)CN2C1=O | 42.5 nM | 1.71 nM | 85.5% | 4.48 nM | 0.4 | 9.5 | –
8 | CCCCC(NC(C)=O)C(=O)N[C@H]1CC(=O)NCCCC[C@@H](C(N)=O)NC(=O)CNC(=O)[C@H](Cc2c[nH]c3ccccc23)NC(=O)[C@H](CCCNC(=N)N)NC(=O)[C@@H](Cc2ccc3ccccc3c2)NC(=O)[C@@H]2C[C@@H](n3cc(C(C)(C)N)nn3)CN2C1=O (stereo partly specified) | – | – | 86.7% | – | 0.4 | 16.7 | Activity (Mus musculus [13]): Active; Activity (Mus musculus [14]): Active
9 | CCCC[C@H](NC(C)=O)C(=O)N[C@H]1CC(=O)NCCCC[C@@H](C(N)=O)NC(=O)[C@@H](Cc2ccccc2)NC(=O)[C@H](CCCN=C(N)N)NC(=O)[C@@H](Cc2ccc3ccccc3c2)NC(=O)[C@@H]2CCCN2C1=O | – | – | – | – | – | – | Tm (Melanocortin receptor 4 [15]): 62.6 °C
10 | CCCC[C@H](NC(C)=O)C(=O)N[C@H]1CC(=O)NCCCC[C@@H](C(N)=O)NC(=O)CNC(=O)[C@H](Cc2c[nH]c3ccccc23)NC(=O)[C@H](CCCNC(=N)N)NC(=O)[C@@H](Cc2ccc3ccccc3c2)NC(=O)[C@@H]2C[C@H](n3cc(-c4ccccc4)nn3)CN2C1=O | 26.4 nM | 53.6 nM | 84.7% | 5.41 nM | 9.9 | 4.9 | –
11 | CCCC[C@H](NC(C)=O)C(=O)N[C@H]1CC(=O)NCCCC[C@@H](C(N)=O)NC(=O)CNC(=O)[C@H](Cc2c[nH]c3ccccc23)NC(=O)[C@H](CCCNC(=N)N)NC(=O)[C@@H](Cc2ccc3ccccc3c2)NC(=O)[C@@H]2C[C@H](n3cc(-c4ccccn4)nn3)CN2C1=O | 31.5 nM | 204 nM | 87.2% | 6.78 nM | 30.1 | 4.5 | –
12 | CCCC[C@H](NC(C)=O)C(=O)N[C@H]1CC(=O)NCCCC[C@@H](C(N)=O)NC(=O)CNC(=O)[C@H](Cc2c[nH]c3ccccc23)NC(=O)[C@H](CCCNC(=N)N)NC(=O)[C@@H](Cc2ccc3ccccc3c2)NC(=O)[C@@H]2C[C@H](n3cc(CCC(=O)O)nn3)CN2C1=O | 130 nM | 389 nM | 86.4% | 18.8 nM | 20.8 | 6.9 | –
13 | CCCC[C@H](NC(C)=O)C(=O)N[C@H]1CC(=O)NCCCC[C@@H](C(N)=O)NC(=O)CNC(=O)[C@H](Cc2c[nH]c3ccccc23)NC(=O)[C@H](CCCNC(=N)N)NC(=O)[C@@H](Cc2ccc3ccccc3c2)NC(=O)[C@@H]2C[C@H](NC(=O)CC3CCCCC3)CN2C1=O | 9.3 nM | 10.5 nM | 93.7% | 6.9 nM | 1.8 | 1.6 | IC50 (Melanocortin receptor 4 [7]; read-out: pIC50 (converted)): 5.89 nM
